Experimental findings from ChEMBL document CHEMBL5244273, “Tuberculosis: An Overview of the Immunogenic Response, Disease Progression, and Medicinal Chemistry Efforts in the Last Decade toward the Development of Potential Drugs for Extensively Drug-Resistant Tuberculosis Strains” (J Med Chem, 2021) are described below.

As a reminder, the MIC is the least concentration at which growth counts as inhibited. By MIC90 is commonly meant an inhibitory concentration at the 90% level, which refers to growth in some studies and to a panel of isolates in others. Read a high MIC90 as lower susceptibility. For orientation: MIC99 means the lowest concentration that inhibits either 99% of growth or 99% of the strains tested, depending on the study. Read a high MIC99 as weaker potency. As usually defined, the MIC50 is the lowest concentration that inhibits either 50% of growth or 50% of the strains tested, depending on the study. A low value points to higher susceptibility.

Values after ≈ are worked out from the molar mass of the structure shown. A value given as a limit tells only on which side of the number the result lay.

The test system of one experiment is Mycobacterium tuberculosis. Nature of the experiment: Antimycobacterial activity against Mycobacterium tuberculosis H37Rv. Format: functional.
`CCOC(=O)c1c(NC(=O)c2c(F)c(F)c(F)c(F)c2F)sc(C(N)=O)c1C` displayed an MIC of 0.5 µg/mL (≈ 1.18 µM).

`CCOC(=O)c1c(NC(=O)c2c(F)c(F)c(F)c(F)c2F)sc2c1CCCCC2` gave an MIC of 1.9 µg/mL (≈ 4.38 µM).

Molecule `CC(=O)N1/C(=C/c2cccc(-c3cnn(C)c3)c2)C(=O)c2ccccc21` displayed an MIC90 of 4.93 µM (≈ 1.69 µg/mL) and an MIC99 of 5.61 µM (≈ 1.93 µg/mL).

Turning to `CC(=O)N1/C(=C/c2ccc(Oc3ccc(Cl)cc3)cc2)C(=O)c2cc(Cl)ccc21`, the MIC90 worked out at 6.02 µM (≈ 2.55 µg/mL) and the MIC99 turned out to be 6.87 µM (≈ 2.91 µg/mL).

As for `CC(=O)N1/C(=C/c2ccc(Oc3ccc(Cl)cc3)cc2)C(=O)c2ccccc21`, the MIC90 came out at 6.2 µM (≈ 2.42 µg/mL) and the MIC99 came to 8.4 µM (≈ 3.27 µg/mL).

Consider `CC(=O)N1/C(=C/c2ccc(OCc3ccccc3)cc2)C(=O)c2ccccc21`, for which the MIC90 was 1.89 µM (≈ 0.698 µg/mL) and the MIC99 came out at 2.58 µM (≈ 0.953 µg/mL).

For the molecule `CC(=O)N1/C(=C/c2ccc(-c3ccccc3)cc2)C(=O)c2cc(C)ccc21`, the MIC90 is over 20 µM and the MIC99 is over 20 µM.

As to `CCc1c(C)sc(NC(=O)c2c(F)c(F)c(F)c(F)c2F)c1C(=O)OC(C)C`, the lowest concentration to inhibit growth (MIC) was 1 µg/mL (≈ 2.37 µM).

The molecule `CC(=O)N1/C(=C/c2ccc(-c3ccsc3)cc2)C(=O)c2ccccc21` showed an MIC90 of 0.336 µM (≈ 0.116 µg/mL) and an MIC99 of 0.6 µM (≈ 0.207 µg/mL).

`CC(=O)N1/C(=C/c2ccc(-c3cnn(C)c3)cc2)C(=O)c2ccccc21` showed an MIC90 of 3.16 µM (≈ 1.09 µg/mL) and an MIC99 of 3.66 µM (≈ 1.26 µg/mL).

In turn, `Cc1c(C(N)=O)sc(NC(=O)c2c(F)c(F)c(F)c(F)c2F)c1C(=O)O` gave an MIC of 78.4 µg/mL (≈ 199 µM).

Molecule `COC(=O)c1c(NC(=O)c2c(F)c(F)c(F)c(F)c2F)sc(-c2ccc(Cl)cc2)c1C(=O)OC` came in with an MIC of 3.5 µg/mL (≈ 6.73 µM).

For `COC(=O)c1sc(NC(=O)c2c(F)c(F)c(F)c(F)c2F)c(C(=O)ON)c1C`, it took 4.9 µg/mL (≈ 11.5 µM) to inhibit growth (MIC).

Regarding `CC(=O)N1/C(=C/c2cccc(-c3ccccc3)c2)C(=O)c2ccccc21`, the MIC90 stood at 4.49 µM (≈ 1.52 µg/mL) and the MIC99 was found to be 4.94 µM (≈ 1.68 µg/mL).

As for `CCOC(=O)c1sc(NC(=O)c2c(F)c(F)c(F)c(F)c2F)c(C(=O)OCC)c1C`, 7.1 µg/mL (≈ 15.7 µM) was the least that counted as inhibitory (MIC).

With `COC(=O)c1c(NC(=O)c2c(F)c(F)c(F)c(F)c2F)sc2c1CCC2`, the MIC amounted to 2.1 µg/mL (≈ 5.37 µM).

Consider `CC(=O)N1/C(=C/c2cccc(-c3ccc(OC(F)(F)F)cc3)c2)C(=O)c2ccccc21`, for which the MIC90 is over 20 µM and the MIC99 is over 20 µM.

Regarding `CC(=O)N1/C(=C/c2ccc(-c3ccc(OC(F)(F)F)cc3)cc2)C(=O)c2cc(Cl)ccc21`, the MIC90 was over 20 µM and the MIC99 was over 20 µM.

`CC(=O)N1/C(=C/c2ccc(-c3ccc(C(F)(F)F)cc3)cc2)C(=O)c2ccccc21` had an MIC90 of 2.65 µM (≈ 1.08 µg/mL) and an MIC99 of 4.3 µM (≈ 1.75 µg/mL).

With `CC(=O)N1/C(=C/c2cccc(-c3ccc(C(F)(F)F)cc3)c2)C(=O)c2ccccc21`, the MIC90 came to 11.6 µM (≈ 4.73 µg/mL) and the MIC99 came to 17.5 µM (≈ 7.13 µg/mL).

With `CC(=O)N1/C(=C/c2cccc(-c3ccsc3)c2)C(=O)c2ccccc21`, the MIC90 came to 3.19 µM (≈ 1.1 µg/mL) and the MIC99 was 3.34 µM (≈ 1.15 µg/mL).

Turning to `CC(=O)N1/C(=C/c2cccc(-c3ccc(F)cc3)c2)C(=O)c2ccccc21`, the MIC90 is 5.1 µM (≈ 1.82 µg/mL) and the MIC99 worked out at 5.66 µM (≈ 2.02 µg/mL).

Molecule `CC(=O)N1/C(=C/c2ccc(-c3cnc4ccccc4c3)cc2)C(=O)c2ccccc21` returned an MIC90 of 0.649 µM (≈ 0.253 µg/mL) and an MIC99 of 0.736 µM (≈ 0.287 µg/mL).

The molecule `NOC(=O)c1c(NC(=O)c2c(F)c(F)c(F)c(F)c2F)sc2c1CCC2` had an MIC of 10.6 µg/mL (≈ 27 µM).

In turn, `CCn1cc(C(=O)O)c(=O)c2cc(F)c(-n3cccc3)cc21` [IRLOXACIN] came in with an MIC50 of 8 µg/mL (≈ 26.6 µM).

The next experiment concerns Mycobacterium tuberculosis. Nature of the experiment: Antimycobacterial activity against Mycobacterium tuberculosis H37Rv assessed as inhibition of bacterial growth by resazurin dye based fluorescence analysis. Format: functional. (Alamar Blue is a resazurin reagent that responds to reducing activity.)
Consider `CCNS(=O)(=O)c1ccc(-c2nnn(Cc3ccncc3)n2)cc1`, for which the MIC came to 0.1 µM (≈ 0.0344 µg/mL).

`CNS(=O)(=O)c1ccc(-c2nnn(Cc3ccc(F)cc3)n2)cc1`: the MIC was 0.1 µM (≈ 0.0347 µg/mL).

With `O=S(=O)(NCCO)c1ccc(-c2nnn(Cc3ccc(F)cc3)n2)cc1`, the MIC stood at 0.1 µM (≈ 0.0377 µg/mL).

In the case of `O=S(=O)(NCCO)c1ccc(-c2nnn(Cc3ccncn3)n2)cc1`, the MIC amounted to 0.1 µM (≈ 0.0361 µg/mL).

Regarding `CNS(=O)(=O)c1ccc(-c2nnn(Cc3ccncc3)n2)cc1`, the MIC was determined as 0.1 µM (≈ 0.033 µg/mL).

As to `COc1ccc(Cn2nnc(-c3ccc(S(=O)(=O)NCCO)cc3)n2)cc1`, the MIC amounted to 0.1 µM (≈ 0.0389 µg/mL).
